Among the data in EP4467141A1, “PYRAZOLO-QUINOLINES AS SELECTIVE INHIBITORS OF GENOTOXIC STRESS-INDUCED IKK/NF- KB PATHWAYS FOR CANCER THERAPY” (Max-Delbrück-Centrum für Molekulare Medizin in der …, priority 2023, dated 2024) are inhibition values, retold here.

Holding throughout (assay): Kinase panel study
Type in all cases: biochemical
What all share (conditions): read-out: Percentage of inhibition; for inhibition at 1 µM: 1000nM; for inhibition at 10 µM: 10000nM

One assay deals with T1, RPS6KA4 (MSK2) (Homo sapiens, UniProt O75676).
T1 construct: purchased Thermo Fisher Scientific
Put shortly:
(§1)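 Inhibition was measured in an outsourced in vitro kinase panel using the ZLyte or Adapta format under the provider's standard procedures. Values are percent inhibition at 10 µM or 1 µM compound, and IC50s were also obtained.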

The target in a further assay is T2, LRRK2 I2020T (Homo sapiens, UniProt Q5S007, I2020T).
T2 construct: purchased Thermo Fisher Scientific
Put shortly: as §1

A further assay deals with T3, EGFR (ErbB1) G719S (Homo sapiens, UniProt P00533, G719S).
T3 construct: purchased Thermo Fisher Scientific
Put shortly: as §1

A further assay concerns the target T4, AMPK (A2/B2/G3) (Homo sapiens, UniProt P54646).
T4 construct: purchased Thermo Fisher Scientific
In outline: as §1

In another assay the target is T5, PAK1 (Homo sapiens, UniProt Q13153).
T5 construct: purchased Thermo Fisher Scientific
In outline: as §1

In another assay the target is T6, FRK (PTK5) (Homo sapiens, UniProt P42685).
T6 construct: purchased Thermo Fisher Scientific
Put shortly:
as §1

The target of the next assay is T7, GRK7 (Homo sapiens, UniProt Q8WTQ7).
T7 construct: purchased Thermo Fisher Scientific
T7 sequence (Q8WTQ7 1-553): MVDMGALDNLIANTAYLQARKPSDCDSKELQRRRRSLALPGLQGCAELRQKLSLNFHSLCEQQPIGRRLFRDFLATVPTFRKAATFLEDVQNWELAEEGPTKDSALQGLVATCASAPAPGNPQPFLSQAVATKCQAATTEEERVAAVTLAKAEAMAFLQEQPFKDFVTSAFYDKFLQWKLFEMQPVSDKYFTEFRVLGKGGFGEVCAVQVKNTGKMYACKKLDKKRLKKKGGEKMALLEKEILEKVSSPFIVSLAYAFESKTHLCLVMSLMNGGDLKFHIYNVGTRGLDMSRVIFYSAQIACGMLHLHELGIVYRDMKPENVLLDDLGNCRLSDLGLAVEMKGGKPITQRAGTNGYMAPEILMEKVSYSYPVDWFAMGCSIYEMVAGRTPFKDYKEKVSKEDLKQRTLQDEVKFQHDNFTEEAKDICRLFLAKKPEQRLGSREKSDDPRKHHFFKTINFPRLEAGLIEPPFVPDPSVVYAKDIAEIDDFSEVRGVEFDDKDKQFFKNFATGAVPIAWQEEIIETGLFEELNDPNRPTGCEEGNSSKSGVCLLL
Put shortly:
as §1

For a further assay, the target named is T8, MAPK12 (p38 gamma) (Homo sapiens, UniProt P53778).
T8 construct: purchased Thermo Fisher Scientific
T8 sequence (P53778 1-367): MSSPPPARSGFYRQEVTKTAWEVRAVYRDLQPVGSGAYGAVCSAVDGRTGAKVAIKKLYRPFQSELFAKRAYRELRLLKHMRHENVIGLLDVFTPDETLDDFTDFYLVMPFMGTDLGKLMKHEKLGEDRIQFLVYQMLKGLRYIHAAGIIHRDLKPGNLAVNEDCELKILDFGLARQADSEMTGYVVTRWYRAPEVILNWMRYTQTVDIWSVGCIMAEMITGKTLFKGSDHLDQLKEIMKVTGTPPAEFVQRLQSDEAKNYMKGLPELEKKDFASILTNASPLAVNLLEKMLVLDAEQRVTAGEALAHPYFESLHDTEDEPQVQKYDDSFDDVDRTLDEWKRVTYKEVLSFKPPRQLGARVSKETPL
In outline:
as §1

The target in another assay is T9, PRKG1 (Homo sapiens, UniProt Q13976).
T9 construct: purchased Thermo Fisher Scientific
T9 sequence (Q13976 1-671): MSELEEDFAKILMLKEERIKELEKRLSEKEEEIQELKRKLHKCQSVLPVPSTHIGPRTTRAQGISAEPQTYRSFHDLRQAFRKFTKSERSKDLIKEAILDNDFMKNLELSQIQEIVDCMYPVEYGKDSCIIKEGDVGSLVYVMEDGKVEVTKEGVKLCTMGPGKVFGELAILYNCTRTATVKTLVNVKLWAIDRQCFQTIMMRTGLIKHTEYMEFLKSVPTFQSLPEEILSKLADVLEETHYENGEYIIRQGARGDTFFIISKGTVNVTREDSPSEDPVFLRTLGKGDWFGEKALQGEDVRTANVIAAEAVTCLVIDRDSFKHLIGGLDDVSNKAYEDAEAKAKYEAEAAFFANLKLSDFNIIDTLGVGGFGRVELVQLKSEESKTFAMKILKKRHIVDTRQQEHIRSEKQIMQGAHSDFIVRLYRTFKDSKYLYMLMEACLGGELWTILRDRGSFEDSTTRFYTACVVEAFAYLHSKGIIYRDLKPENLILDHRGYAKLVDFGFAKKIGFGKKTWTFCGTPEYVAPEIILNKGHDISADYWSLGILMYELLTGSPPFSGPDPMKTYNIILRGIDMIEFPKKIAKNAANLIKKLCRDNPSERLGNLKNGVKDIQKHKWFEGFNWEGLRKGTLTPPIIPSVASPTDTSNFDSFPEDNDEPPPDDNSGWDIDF
Put shortly: as §1

T2 sequence (Q5S007 970-2527 I2020T limits assumed): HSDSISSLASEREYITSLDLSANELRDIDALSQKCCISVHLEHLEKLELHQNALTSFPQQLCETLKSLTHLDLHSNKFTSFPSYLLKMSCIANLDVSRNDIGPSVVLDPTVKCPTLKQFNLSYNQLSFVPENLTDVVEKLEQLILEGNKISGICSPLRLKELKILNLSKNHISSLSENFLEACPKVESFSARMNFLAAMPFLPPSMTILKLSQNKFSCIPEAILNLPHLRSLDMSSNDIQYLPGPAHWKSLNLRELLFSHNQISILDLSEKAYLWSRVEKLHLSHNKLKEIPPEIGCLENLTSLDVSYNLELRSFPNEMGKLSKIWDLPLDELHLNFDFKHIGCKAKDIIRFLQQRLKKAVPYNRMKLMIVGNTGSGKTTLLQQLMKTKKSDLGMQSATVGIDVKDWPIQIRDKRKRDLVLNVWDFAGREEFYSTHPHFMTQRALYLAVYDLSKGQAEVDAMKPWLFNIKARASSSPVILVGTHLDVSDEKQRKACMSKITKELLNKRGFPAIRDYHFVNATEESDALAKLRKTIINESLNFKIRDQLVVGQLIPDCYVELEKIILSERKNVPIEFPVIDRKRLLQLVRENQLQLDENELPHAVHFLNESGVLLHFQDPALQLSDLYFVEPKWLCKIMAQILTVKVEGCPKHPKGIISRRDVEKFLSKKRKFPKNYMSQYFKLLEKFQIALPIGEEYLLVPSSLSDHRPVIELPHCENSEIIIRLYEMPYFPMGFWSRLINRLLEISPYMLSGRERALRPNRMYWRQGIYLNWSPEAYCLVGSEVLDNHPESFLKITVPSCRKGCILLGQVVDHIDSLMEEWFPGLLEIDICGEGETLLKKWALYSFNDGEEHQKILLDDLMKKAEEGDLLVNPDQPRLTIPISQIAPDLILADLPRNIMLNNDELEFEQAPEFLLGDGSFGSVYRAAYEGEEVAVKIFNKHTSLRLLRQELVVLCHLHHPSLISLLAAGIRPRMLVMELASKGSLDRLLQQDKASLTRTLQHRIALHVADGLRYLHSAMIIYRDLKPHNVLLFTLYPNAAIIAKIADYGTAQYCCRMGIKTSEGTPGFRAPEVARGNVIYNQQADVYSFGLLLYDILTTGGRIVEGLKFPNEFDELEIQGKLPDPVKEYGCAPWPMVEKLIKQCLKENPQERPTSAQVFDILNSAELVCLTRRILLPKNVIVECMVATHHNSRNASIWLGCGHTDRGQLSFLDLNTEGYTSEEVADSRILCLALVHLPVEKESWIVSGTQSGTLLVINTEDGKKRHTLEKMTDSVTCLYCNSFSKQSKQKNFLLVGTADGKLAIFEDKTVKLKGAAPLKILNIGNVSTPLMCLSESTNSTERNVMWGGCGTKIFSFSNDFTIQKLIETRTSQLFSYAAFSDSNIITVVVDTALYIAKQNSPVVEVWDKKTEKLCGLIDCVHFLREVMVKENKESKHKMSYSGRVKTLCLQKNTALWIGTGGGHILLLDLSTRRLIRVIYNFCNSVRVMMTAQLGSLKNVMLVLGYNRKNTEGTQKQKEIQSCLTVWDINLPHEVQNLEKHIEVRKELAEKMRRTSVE
T4 sequence (P54646 whole entry): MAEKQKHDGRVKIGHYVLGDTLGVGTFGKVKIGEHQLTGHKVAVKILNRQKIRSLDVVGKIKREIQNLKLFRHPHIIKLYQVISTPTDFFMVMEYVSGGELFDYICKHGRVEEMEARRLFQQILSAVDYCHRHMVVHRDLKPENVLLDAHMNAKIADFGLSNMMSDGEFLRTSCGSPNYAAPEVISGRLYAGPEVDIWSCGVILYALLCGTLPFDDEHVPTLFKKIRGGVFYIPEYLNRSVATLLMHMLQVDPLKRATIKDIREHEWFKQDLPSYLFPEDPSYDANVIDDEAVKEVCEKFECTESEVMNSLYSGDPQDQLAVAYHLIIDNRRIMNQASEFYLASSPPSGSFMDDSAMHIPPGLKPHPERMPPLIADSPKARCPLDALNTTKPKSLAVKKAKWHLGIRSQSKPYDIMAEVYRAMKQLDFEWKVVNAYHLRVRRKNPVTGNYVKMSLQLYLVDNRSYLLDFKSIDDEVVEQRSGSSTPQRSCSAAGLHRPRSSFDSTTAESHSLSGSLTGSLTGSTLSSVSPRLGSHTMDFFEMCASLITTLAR
T4 sequence (O43741 whole entry partner): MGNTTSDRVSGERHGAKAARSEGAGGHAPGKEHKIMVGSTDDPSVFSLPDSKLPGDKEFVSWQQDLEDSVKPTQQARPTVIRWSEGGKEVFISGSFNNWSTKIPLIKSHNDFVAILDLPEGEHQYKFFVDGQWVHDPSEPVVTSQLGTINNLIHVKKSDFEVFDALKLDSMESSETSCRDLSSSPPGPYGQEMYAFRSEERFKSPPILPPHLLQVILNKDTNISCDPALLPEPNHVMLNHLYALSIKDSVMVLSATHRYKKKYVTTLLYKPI
T4 sequence (Q9UGI9 whole entry partner): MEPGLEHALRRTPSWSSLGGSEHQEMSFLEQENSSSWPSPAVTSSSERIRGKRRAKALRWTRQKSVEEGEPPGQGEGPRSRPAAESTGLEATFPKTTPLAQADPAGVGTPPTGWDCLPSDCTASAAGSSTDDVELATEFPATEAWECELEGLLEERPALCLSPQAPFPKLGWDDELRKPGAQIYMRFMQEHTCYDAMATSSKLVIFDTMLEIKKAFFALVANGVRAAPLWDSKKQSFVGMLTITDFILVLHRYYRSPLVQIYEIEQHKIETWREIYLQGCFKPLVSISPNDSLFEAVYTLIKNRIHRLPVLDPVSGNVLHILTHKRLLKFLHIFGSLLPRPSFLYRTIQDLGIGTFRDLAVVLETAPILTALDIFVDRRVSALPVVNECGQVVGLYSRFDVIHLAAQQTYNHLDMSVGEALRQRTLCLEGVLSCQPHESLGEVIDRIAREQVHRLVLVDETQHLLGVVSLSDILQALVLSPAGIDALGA
T6 sequence (P42685 whole entry): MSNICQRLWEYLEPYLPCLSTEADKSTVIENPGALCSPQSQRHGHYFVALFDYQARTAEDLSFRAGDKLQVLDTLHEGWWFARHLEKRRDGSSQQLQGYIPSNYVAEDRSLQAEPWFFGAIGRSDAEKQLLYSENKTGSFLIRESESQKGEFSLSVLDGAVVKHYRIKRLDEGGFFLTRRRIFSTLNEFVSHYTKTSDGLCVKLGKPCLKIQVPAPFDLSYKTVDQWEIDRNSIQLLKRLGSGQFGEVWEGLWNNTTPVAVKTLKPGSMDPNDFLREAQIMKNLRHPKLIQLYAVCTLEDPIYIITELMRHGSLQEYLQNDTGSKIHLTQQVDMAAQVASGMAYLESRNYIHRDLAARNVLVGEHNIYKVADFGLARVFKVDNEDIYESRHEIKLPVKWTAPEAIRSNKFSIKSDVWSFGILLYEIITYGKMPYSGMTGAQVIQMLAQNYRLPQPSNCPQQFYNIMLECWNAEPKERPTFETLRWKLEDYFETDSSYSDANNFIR
T1 sequence (O75676 whole entry): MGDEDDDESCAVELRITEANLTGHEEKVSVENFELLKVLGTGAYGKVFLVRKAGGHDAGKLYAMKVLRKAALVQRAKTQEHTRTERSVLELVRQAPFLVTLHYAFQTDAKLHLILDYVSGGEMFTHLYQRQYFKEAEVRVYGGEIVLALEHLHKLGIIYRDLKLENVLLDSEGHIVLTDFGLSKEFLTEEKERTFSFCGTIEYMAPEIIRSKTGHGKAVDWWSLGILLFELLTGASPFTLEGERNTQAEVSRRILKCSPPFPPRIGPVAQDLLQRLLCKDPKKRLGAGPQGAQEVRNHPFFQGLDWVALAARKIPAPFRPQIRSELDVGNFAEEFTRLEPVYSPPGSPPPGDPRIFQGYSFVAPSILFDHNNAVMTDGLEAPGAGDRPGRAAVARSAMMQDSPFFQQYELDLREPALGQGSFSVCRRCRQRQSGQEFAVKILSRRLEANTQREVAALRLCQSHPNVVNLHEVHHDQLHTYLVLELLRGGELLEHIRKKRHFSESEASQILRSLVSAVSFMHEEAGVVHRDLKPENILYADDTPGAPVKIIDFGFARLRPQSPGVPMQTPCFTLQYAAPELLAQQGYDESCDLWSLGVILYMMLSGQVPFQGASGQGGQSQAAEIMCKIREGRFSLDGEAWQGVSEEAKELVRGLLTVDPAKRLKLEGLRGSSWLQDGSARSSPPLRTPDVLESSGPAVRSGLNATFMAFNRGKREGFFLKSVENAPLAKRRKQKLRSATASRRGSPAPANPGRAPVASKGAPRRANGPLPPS
T5 sequence (Q13153 whole entry): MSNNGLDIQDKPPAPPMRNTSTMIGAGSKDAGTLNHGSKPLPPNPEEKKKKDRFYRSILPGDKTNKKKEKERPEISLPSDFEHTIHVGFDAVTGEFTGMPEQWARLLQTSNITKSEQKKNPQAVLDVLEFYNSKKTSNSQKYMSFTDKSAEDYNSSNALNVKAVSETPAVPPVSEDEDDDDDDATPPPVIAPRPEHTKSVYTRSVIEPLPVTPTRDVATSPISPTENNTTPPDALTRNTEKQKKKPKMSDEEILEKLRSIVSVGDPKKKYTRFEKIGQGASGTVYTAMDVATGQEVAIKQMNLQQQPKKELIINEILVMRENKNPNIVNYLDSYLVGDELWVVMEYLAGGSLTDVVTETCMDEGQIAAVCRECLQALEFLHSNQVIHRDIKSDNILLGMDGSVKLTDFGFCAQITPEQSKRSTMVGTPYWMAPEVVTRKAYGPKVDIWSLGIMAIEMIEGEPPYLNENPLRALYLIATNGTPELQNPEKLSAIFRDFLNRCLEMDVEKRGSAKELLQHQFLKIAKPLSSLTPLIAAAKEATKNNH

In the case of `COc1ccc2c(c1OC)c(=O)n1c3ccc(O)cc3c3ccnc2c31` [MW01, 5-Hydroxy-10,11-dimethoxy-9H-benzo[c]indolo[3,2,1-ij][1,5]naphthyridin-9-one], the inhibition at 1 µM on RPS6KA4 (MSK2) was determined as 12%; on LRRK2 I2020T, 83%; on EGFR (ErbB1) G719S it was 5%; at AMPK (A2/B2/G3), 8%; on PAK1, 10%; on FRK (PTK5), 15%. The inhibition at 1 µM on GRK7 was -2%; on MAPK12 (p38 gamma) it was 8%; at PRKG1, 27%. The inhibition at 10 µM came out at 24% on RPS6KA4 (MSK2); 90% at LRRK2 I2020T; 14% at EGFR (ErbB1) G719S; 18% at AMPK (A2/B2/G3); 22% at PAK1; 22% on FRK (PTK5). Further, the results for the inhibition at 10 µM on GRK7, at MAPK12 (p38 gamma) and at PRKG1 were 0%, 11% and 59%, respectively.

On to `COc1ccc2cc3c(N)nn(C(=O)c4cccc(N(C)C)c4)c3nc2c1` [MW05, (3-Amino-7-methoxypyrazolo[3,4-b]quinolin-1-yl)-[3-(dimethylamino)phenyl]methanone], for which the inhibition at 1 µM at RPS6KA4 (MSK2) is -3%; on LRRK2 I2020T, -3%; on EGFR (ErbB1) G719S it was 4%; on AMPK (A2/B2/G3) it was 4%; on PAK1, 16%; on FRK (PTK5), 9%. For the same molecule, the values for the inhibition at 1 µM at GRK7, at MAPK12 (p38 gamma) and at PRKG1 were -2%, 4% and 5%, respectively. For the same molecule, the inhibition at 10 µM at RPS6KA4 (MSK2) was 4%; at LRRK2 I2020T, 5%; on EGFR (ErbB1) G719S, -5%; on AMPK (A2/B2/G3), -4%; at PAK1, 2%; at FRK (PTK5) it was 6%. Further, the inhibition at 10 µM on GRK7 was 5%; on MAPK12 (p38 gamma) it was 4%; at PRKG1 it was -11%.

One may read the inhibition as the drop in the measured response relative to a control, in per cent.
